Reference: US8952024B2, “Herbicidal pyrimidone derivatives” (E I du Pont de Nemours and Company, priority 2009, dated 2015)

Assays:
Type in all cases: in vivo
[1] = test system: wheat (Triticum aestivum); assay: Test A pre-/postemergence plant response
Method in brief: (§1)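 Both pre- and postemergence treatments are applied simultaneously, using chemicals formulated in a non-phytotoxic solvent mixture with surfactant. Postemergence plants are 2–10 cm high with one to two leaves. After approximately ten days in a greenhouse, injury is scored visually from 0 (none) to 100 (complete control) relative to untreated plants.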

[2] = test system: giant foxtail (Setaria faberii); assay: Test A pre-/postemergence plant response
Method in brief: as §1

[3] = test system: velvetleaf (Abutilon theophrasti); assay: Test A pre-/postemergence plant response
Method in brief: as §1

[4] = test system: large crabgrass (Digitaria sanguinalis); assay: Test A pre-/postemergence plant response
Method in brief: as §1

[5] = test system: pigweed (Amaranthus retroflexus); assay: Test A pre-/postemergence plant response
Method in brief: as §1

[6] = test system: corn (Zea mays); assay: Test A pre-/postemergence plant response
Method in brief: as §1

[7] = test system: morningglory (Ipomoea spp.); assay: Test A pre-/postemergence plant response
Method in brief: as §1

[8] = test system: barnyardgrass (Echinochloa crus-galli); assay: Test A pre-/postemergence plant response
Method in brief: as §1

[9] = test system: rice (Oryza sativa); assay: Test B flooded paddy test; conditions: for Plant response rating, Flood, Rice: 250 g ai/ha, flooded paddy test, visual rating on 0 to 100 scale (0 no effect, 100 complete control) after 13 to 15 days; for Plant response rating, Rice: Flood (flooded paddy test), 13 to 15 days; for Rice plant response rating: Flood, 31 g ai/ha, scale 0 to 100 (0 no effect, 100 complete control)
Method in brief: (§2)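 Flooded-pot test: water raised to 3 cm above soil when treating, compound put in the water, level unchanged thereafter. Plants were at 2 leaves. Readout after 13 to 15 days, visual, relative to controls; 0 signifies no effect and 100 complete control.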

[10] = test system: umbrella sedge (Cyperus difformis); assay: Test B flooded paddy test; conditions: for Plant response rating, Flood, Sedge, Umbrella: 250 g ai/ha, flooded paddy test, visual rating on 0 to 100 scale (0 no effect, 100 complete control) after 13 to 15 days; for Plant response rating, Sedge, Umbrella: Flood (flooded paddy test), 13 to 15 days; for Sedge, Umbrella plant response rating: Flood, 31 g ai/ha, scale 0 to 100 (0 no effect, 100 complete control)
Method in brief: as §2

[11] = test system: barnyardgrass (Echinochloa crus-galli); assay: Test B flooded paddy test; conditions: for Plant response rating, Flood, Barnyardgrass: 250 g ai/ha, flooded paddy test, visual rating on 0 to 100 scale (0 no effect, 100 complete control) after 13 to 15 days; for Plant response rating, Barnyardgrass: Flood (flooded paddy test), 13 to 15 days; for Barnyardgrass plant response rating: Flood, 31 g ai/ha, scale 0 to 100 (0 no effect, 100 complete control)
Method in brief: as §2

[12] = test system: ducksalad (Heteranthera limosa); assay: Test B flooded paddy test; conditions: for Plant response rating, Flood, Ducksalad: 250 g ai/ha, flooded paddy test, visual rating on 0 to 100 scale (0 no effect, 100 complete control) after 13 to 15 days; for Plant response rating, Ducksalad: Flood (flooded paddy test), 13 to 15 days; for Ducksalad plant response rating: Flood, 31 g ai/ha, scale 0 to 100 (0 no effect, 100 complete control)
Method in brief: as §2

[13] = Postemergence, 125 g ai/ha, 0 to 100 scale where 0 is no effect and 100 is complete control
[14] = Postemergence, 500 g ai/ha, visual injury, 0 to 100 scale (0 no effect, 100 complete control), approx. ten days
[15] = Preemergence, 125 g ai/ha, 0 to 100 scale, 0 = no effect, 100 = complete control
[16] = Preemergence, 500 g ai/ha, 0 to 100 scale, 0 = no effect, 100 = complete control
[17] = 62 g ai/ha, scale of 0 to 100 where 0 is no effect and 100 is complete control
[18] = 125 g ai/ha, scale 0 to 100, 0 is no effect, 100 is complete control
[19] = Postemergence, 500 g ai/ha, 0 to 100 scale, 0 = no effect, 100 = complete control, approx. ten days
[20] = Preemergence, 500 g ai/ha, visual injury, 0 to 100 scale (0 no effect, 100 complete control), approx. ten days

O=C1CCCC(O)=C1C(=O)c1cnc(-c2cccc(F)c2)n(CCC(F)(F)F)c1=O [Compound 208]
70: Plant response rating, Foxtail, Giant [2, 16] | Plant response rating, Morningglory [7, 16] | Plant response rating, Flood, Sedge, Umbrella [10]
25: Plant response rating, Flood, Barnyardgrass [11]
15: Plant response rating, Barnyardgrass [11, 18]
10: Wheat plant response rating [1, 14] | Plant response rating, Barnyardgrass [8, 15]
0: Plant response rating, Wheat [1, 13] | Plant response rating, Wheat [1, 15] | Plant response rating, Corn [6, 13] | Plant response rating, Corn [6, 15] | Plant response rating, Morningglory [7, 15] | Plant response rating, Flood, Rice [9] | Plant response rating, Rice [9, 17] | Plant response rating, Rice [9, 18] | Rice plant response rating [9] | Sedge, Umbrella plant response rating [10] | Plant response rating, Barnyardgrass [11, 17] | Barnyardgrass plant response rating [11] | Ducksalad plant response rating [12]
30: Plant response rating, Foxtail, Giant [2, 13] | Plant response rating, Crabgrass, Large [4, 13] | Plant response rating, Barnyardgrass [8, 13] | Plant response rating, Ducksalad [12, 17]
80: Foxtail, Giant plant response rating [2, 14] | Crabgrass, Large plant response rating [4, 14] | Plant response rating, Crabgrass, Large [4, 15] | Plant response rating, Pigweed [5, 13] | Plant response rating, Barnyardgrass [8, 16]
90: Plant response rating, Velvetleaf [3, 16] | Pigweed plant response rating [5, 14] | Barnyardgrass plant response rating [8, 14]
50: Plant response rating, Morningglory [7, 13]
40: Plant response rating, Foxtail, Giant [2, 15] | Plant response rating, Sedge, Umbrella [10, 17] | Plant response rating, Sedge, Umbrella [10, 18] | Plant response rating, Ducksalad [12, 18]
100: Plant response rating, Velvetleaf [3, 13] | Velvetleaf plant response rating [3, 14] | Plant response rating, Crabgrass, Large [4, 16] | Plant response rating, Pigweed [5, 16] | Morningglory plant response rating [7, 14]
20: Plant response rating, Wheat [1, 16] | Corn plant response rating [6, 14] | Plant response rating, Corn [6, 16]
75: Plant response rating, Flood, Ducksalad [12]
60: Plant response rating, Velvetleaf [3, 15] | Plant response rating, Pigweed [5, 15]

Cc1ccc(Cl)cc1-n1c(-c2cccc(Br)c2)ncc(C(=O)C2=C(O)CCCC2=O)c1=O [Compound 144]
70: Plant response rating, Velvetleaf [3, 16] | Plant response rating, Morningglory [7, 19] | Plant response rating, Barnyardgrass [8, 13]
60: Plant response rating, Ducksalad [12, 17]
40: Plant response rating, Foxtail, Giant [2, 13]
30: Plant response rating, Crabgrass, Large [4, 20] | Plant response rating, Corn [6, 19] | Plant response rating, Morningglory [7, 13]
50: Plant response rating, Crabgrass, Large [4, 13] | Sedge, Umbrella plant response rating [10] | Ducksalad plant response rating [12]
75: Plant response rating, Ducksalad [12, 18]
0: Plant response rating, Wheat [1, 13] | Plant response rating, Wheat [1, 19] | Plant response rating, Wheat [1, 15] | Plant response rating, Wheat [1, 16] | Plant response rating, Foxtail, Giant [2, 15] | Plant response rating, Pigweed [5, 15] | Plant response rating, Corn [6, 13] | Plant response rating, Corn [6, 15] | Plant response rating, Corn [6, 20] | Plant response rating, Morningglory [7, 15] | Plant response rating, Barnyardgrass [8, 15] | Plant response rating, Barnyardgrass [11, 17] | Plant response rating, Barnyardgrass [11, 18] | Barnyardgrass plant response rating [11]
10: Plant response rating, Foxtail, Giant [2, 20] | Plant response rating, Crabgrass, Large [4, 15] | Plant response rating, Morningglory [7, 20]
100: Plant response rating, Velvetleaf [3, 13] | Plant response rating, Velvetleaf [3, 19] | Plant response rating, Barnyardgrass [8, 19] | Plant response rating, Flood, Sedge, Umbrella [10] | Plant response rating, Flood, Ducksalad [12]
95: Plant response rating, Sedge, Umbrella [10, 18]
25: Plant response rating, Flood, Rice [9]
90: Plant response rating, Foxtail, Giant [2, 19] | Plant response rating, Crabgrass, Large [4, 19] | Plant response rating, Pigweed [5, 19] | Plant response rating, Pigweed [5, 20]
80: Plant response rating, Pigweed [5, 13]
20: Plant response rating, Velvetleaf [3, 15] | Plant response rating, Barnyardgrass [8, 20] | Plant response rating, Rice [9, 17] | Plant response rating, Rice [9, 18] | Plant response rating, Flood, Barnyardgrass [11]
65: Plant response rating, Sedge, Umbrella [10, 17]
15: Rice plant response rating [9]
